# Assay results: patent US20240374560A1, “FIBER-ENHANCED LIPOSOME AND METHODS” (Vidya Herbs, Inc., priority 2023, published 2024)
# Where a name gives a salt, the structure may show the parent alone.
# Tests used:
# [1] = In vitro release study of vitamin C, dialysis set up; assay type: physicochemical; conditions: after 8 h, PBS pH 7.4, 37° C.
# Method: The comparative in vitro release study of vitamin C encapsulated in the inventive liposome versus and non-encapsulated vitamin C (control) was performed using the dialysis set up. […] A weighed quantity of encapsulated vitamin C (50 mg) was suspended in 10 mL of PBS and transferred into the dialysis bag (donor compartment). […] A control experiment was performed simultaneously in which unencapsulated vitamin C solution was dialyzed. […] The absorbance of the samples was measured at 295 nm. The concentration of vitamin C in the samples was determined using a standard curve.
# [2] = after 3 h; dialysis, PBS pH 7.4, 37° C.
# Method: The comparative in vitro release study of caffeine encapsulated in the inventive liposome versus plain caffeine (control) was performed using a dialysis set up. Prior to the diffusion experiment, the cellulose acetate dialysis membrane (Sigma Aldrich, Molecular weight cut-off (MWCO) 12 kDa) was soaked in phosphate buffered saline (PBS, pH 7.4) for 12 h. A weighed quantity of liposomal caffeine (50 mg) was suspended in 10 mL of PBS and transferred into the dialysis bag (donor compartment). The dialysis bag was placed in a beaker containing 100 mL of PBS (receptor compartment). The setup was incubated at 120 rpm for 8 h in a 37° C. shaker incubator.
# A control experiment was performed simultaneously in which a plain caffeine solution was dialyzed. A 1 mL aliquot of PBS in the receptor compartment was sampled at different time points and an equal quantity of fresh PBS was replaced in the compartment after each withdrawal. The caffeine content in the samples were quantified using HPLC.
# [3] = in vivo; conditions: male, Wistar, rat, plasma, po, 60 mg/kg
# [4] = Pharmacokinetics of ursolic acid after single oral dose; conditions: ursolic acid in rat plasma
# [5] = In vitro release study of berberine, dialysis set up; assay type: physicochemical; conditions: after 6 h, pH 7.4
# [6] = Pharmacokinetic study of berberine after single oral dose; assay type: in vivo, Wistar rats; conditions: male, Wistar, berberine in rat plasma
# [7] = Comparative oral bioavailability of vitamin C, crossover study in healthy volunteers; conditions: human, in vivo
# Method: The inventive liposome comprised at least 40% w/w Vitamin C.
# A group of 12 healthy volunteers were screened on Visit 1 to confirm their eligibility. Subjects fulfilling the eligibility criteria were randomized into 1 of 2-treatment sequences on Visit 2. There was a washout period of 7 days each between the 2 dosing days. […] Subjects returned to the study center for the second period. On the morning of Day 1, in each period, subjects in a fasting state (at least 10 hours before dosing) received one 600 mg capsule orally of their assigned formulation (Table 2) as per randomization scheme, with 200±2 mL of water at room temperature. The study duration was approximately 12 days (2 dosing days and 1 washout period of 7±1 days). A total of 10 blood samples were collected in each of the two study periods. The pre-dose samples (2 mL) were collected within 1 hour before dosing. The post-dose samples (1×2 mL) were collected at 30 min, 60 min, 2, 3, 4, 5, 6, 8 and 12 hours after dosing in vacuum tubes containing K2 EDTA. All blood samples were collected from an ante-cubital vein or any suitable forearm vein using an indwelling cannula. Before each blood sample is drawn, 1 mL of blood was discarded so as to prevent the saline diluted blood and heparin from interfering with the analysis.
# Plasma concentrations were measured using ultra performance liquid chromatographyelectrospray ionization-tandem mass spectrometry (UPLC-ESI-MS/MS), gas chromatography mass spectrometry (GC-MS/MS) and High-Performance Liquid Chromatography (HPLC). All the pharmacokinetic parameters were compared between the two treatment groups using Pair-t-test with 5% level of significance. All statistical analysis was performed using R statistical software version 4.2.1.
# [8] = In vitro release study of glutathione, dialysis set up; assay type: physicochemical; conditions: after 7 h, pH 7.4
# Method: The comparative in vitro release study of glutathione encapsulated in the inventive liposome and non-encapsulated glutathione (control) was performed using the dialysis set up. […] A control experiment was performed simultaneously in which the non-encapsulated glutathione solution was dialyzed. […] The concentration of glutathione in the samples was determined using the validated HPLC method.
# The mobile phase consisted of 50 mM phosphate buffer. The injection volume was 5 μL. The detection was carried out at 230 nm.
compound,measurement,setting,value
"C[C@H]1[C@H](C)CC[C@]2(C(=O)O)CC[C@]3(C)C(=CC[C@@H]4[C@@]5(C)CC[C@H](O)C(C)(C)[C@@H]5CC[C@]43C)[C@H]12 [Control, ursolic acid]",vitamin C released,[1],67.54%
same,caffeine released,[2],100%
same,AUC(0-t),[3],877 ± 44.6 ng·h/mL
same,Cmax,[3],201 ± 42.4 ng/mL
same,Tmax,[3],0.75 ± 0.35 h
same,half-life,[3],4.49 ± 0.11 h
same,Kel,[4],0.15 ± 0.004 h⁻¹
same,maximum plasma concentration of UA,[4],201 ± 42.43 ng/mL
same,Kel,[4]; listed as control,0.15 ± 0.004 h⁻¹
"COc1ccc2cc3[n+](cc2c1OC)CCc1cc2c(cc1-3)OCO2 [Control (Unformulated), berberine HCl]",berberine cumulative release %,[5],100%
same,AUC(0-t),"[6]; 320 mg/kg, single oral dose",410 ± 40 ng·h/mL
same,Tmax,"[6]; 320 mg/kg, single oral dose",0.25 h
same,half-life,"[6]; 320 mg/kg, single oral dose, read-out: t½ (converted)",7.32 ± 0.61 h
same,Cmax,[6]; single oral dose (600 mg/kg encapsulated; 320 mg/kg berberine HCl),15.5 ± 9.66 ng/mL
"O=C1O[C@H]([C@@H](O)CO)C(O)=C1O [unformulated Vitamin C, vitamin C]",AUC(0-inf),[7],6260 ± 4560 ng·h/mL
same,AUC(0-t),[7],4130 ± 1740 ng·h/mL
same,Cmax,[7],970 ng/mL
same,MRT,[7],9.3 ± 8.42 h
same,Tmax,[7],2.67 ± 1.07 h
same,"Plasma concentration of vitamin C, Mean",[7]; 0.5 h,219.99
same,"Plasma concentration of vitamin C, Mean",[7]; 1 h,502.39
same,"Plasma concentration of vitamin C, Mean",[7]; 2 h,728.44
same,"Plasma concentration of vitamin C, Mean",[7]; 3 h,680.46
same,"Plasma concentration of vitamin C, Mean",[7]; 4 h,456.28
same,"Plasma concentration of vitamin C, Mean",[7]; 5 h,405.53
same,"Plasma concentration of vitamin C, Mean",[7]; 6 h,338.54
same,"Plasma concentration of vitamin C, Mean",[7]; 8 h,219.14
same,"Plasma concentration of vitamin C, Mean",[7]; 12 h,162.08
"N[C@@H](CCC(=O)N[C@@H](CS)C(=O)NCC(=O)O)C(=O)O [non-encapsulated glutathione, glutathione]",glutathione cumulative release %,[8],96.86%
